Measured values taken from US11773087B2, “GLP-1R receptor agonist compound and use thereof” (SUZHOU VINCENTAGE PHARMA CO., LTD, priority 2020, dated 2023).

Target: T1, human GLP-1R receptor (Homo sapiens, UniProt P43220)
T1 construct: expressed in transfected cells; host or cells: 'GLP-1R cells' (frozen vial)
Assay: GLP-1R cAMP assay (HTRF, HEK293 cells expressing GLP-1R)
Type: cell-based
Details: agonistic activity, GLP-1R HEK293 cells
Procedure: Test Embodiment 1: Activity Test of GLP-1R cAMP Assay
This experiment aims to verify the agonistic activity of the compound of the present disclosure on human GLP-1R receptor.
Compounds were diluted 4-fold starting at 100 μM from DMSO using Bravo for a total of 10 points.
The reference compound polypeptide GLP-1 (7-37) was diluted 4-fold starting from 500 nM in DMSO using Bravo for a total of 10 points.
b) Preparation of Cell Suspension: • 1) 1 vial of GLP-1R cells was quickly thawed in a 37° C. water bath. • 2) The suspension of the cells was transferred to 10 mL of HBSS in a 15 mL conical tube. • 3) The cells were centrifuged at 1000 rpm for 5 min at room temperature to precipitate the cells. • 4) The supernatant was gently aspirated, and being careful not to aspirate the cells. • 5) The cells were relaxed by flicking the precipitation, and then the cell precipitation was re-suspended in 10 mL of HBSS. A sterile pipette was used to move fluid up and down to remove clumps. • 6) The concentration of cells was counted and the cell viability on Vi-cell was determined. • 7) GLP-1R cells were re-suspended in the test buffer at a concentration of 2.0×E5/mL cells. • 8) 10 μL of GLP-1R cell was transferred to OptiPlate-384 well plate.
c) Transfer of Compound: • 1) 100 nL of compound was transferred to OptiPlate-384 plate using Echo Transfer. • 2) The plate was rotated at 1000 rpm for 5 seconds.
d) HTRF cAMP Analysis of Agonists: • 1) The plate was incubated at room temperature for 30 minutes before adding detection reagents. • 2) An electric multi-channel pipette was used to add 10 μL of detection reagents respectively. • 3) The 384 well plate was covered with TopSeal-A membrane and incubated for 60 min at room temperature.
TopSeal-A was unloaded and read on EnVision.

T1 sequence (P43220 24-463): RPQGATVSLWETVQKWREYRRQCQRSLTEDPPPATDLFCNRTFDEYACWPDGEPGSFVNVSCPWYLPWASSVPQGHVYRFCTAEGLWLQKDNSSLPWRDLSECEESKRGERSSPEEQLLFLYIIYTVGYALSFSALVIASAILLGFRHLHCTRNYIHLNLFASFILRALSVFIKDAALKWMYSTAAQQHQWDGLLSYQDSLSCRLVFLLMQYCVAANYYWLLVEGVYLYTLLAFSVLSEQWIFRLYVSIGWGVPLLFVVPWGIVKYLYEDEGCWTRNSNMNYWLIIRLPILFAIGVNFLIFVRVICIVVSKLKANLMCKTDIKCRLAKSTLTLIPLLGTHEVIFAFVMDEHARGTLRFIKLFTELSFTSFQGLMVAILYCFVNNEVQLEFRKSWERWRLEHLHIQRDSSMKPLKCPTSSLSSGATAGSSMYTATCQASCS

| Structure (SMILES) | EC50 |
| --- | --- |
| N#Cc1ccc(COc2ccccc2C2CCN(Cc3nc4ccc(C(=O)O)cc4n3C[C@@H]3CCO3)CC2)c(F)c1 [Compound 1] | 3.4 nM |
| N#Cc1ccc(COc2c(F)cccc2C2CCN(Cc3nc4ccc(C(=O)O)cc4n3C[C@@H]3CCO3)CC2)c(F)c1 [Compound 2] | 0.8 nM |
| COc1cccc(C2CCN(Cc3nc4ccc(C(=O)O)cc4n3C[C@@H]3CCO3)CC2)c1OCc1ccc(Cl)cc1F [Compound 5] | 15 nM |
| O=C(O)c1ccc2nc(CN3CCC(c4c(F)cccc4OCc4ccc(Cl)cc4F)CC3)n(C[C@@H]3CCO3)c2c1 [Compound 6] | 8.1 nM |
| O=C(O)c1ccc2nc(CN3CCC(c4cccc(F)c4OCc4ccccc4F)CC3)n(C[C@@H]3CCO3)c2c1 [Compound 7] | 5 nM |
| O=C(O)c1ccc2nc(CN3CCC(c4ccccc4OCc4ccc(F)cc4F)CC3)n(C[C@@H]3CCO3)c2c1 [Compound 8] | 3.2 nM |
| O=C(O)c1ccc2nc(CN3CCC(c4ccccc4OCc4ccc(Cl)cn4)CC3)n(C[C@@H]3CCO3)c2c1 [Compound 9] | 34.8 nM |
| CC(Oc1ccccc1C1CCN(Cc2nc3ccc(C(=O)O)cc3n2C[C@@H]2CCO2)CC1)c1ccc(Cl)cc1F (stereo partly drawn) [Compound 10] | 26 nM |
| O=C(O)c1ccc2nc(CN3CCC(c4ccccc4OCc4ccc(Cl)cc4Cl)CC3)n(C[C@@H]3CCO3)c2c1 [Compound 11] | 2.9 nM |
| O=C(O)c1ccc2nc(CN3CCC(c4ccc(F)cc4OCc4ccc(Cl)cc4F)CC3)n(C[C@@H]3CCO3)c2c1 [Compound 13] | 5.8 nM |
| O=C(O)c1ccc2nc(CN3CCC(c4cc(F)ccc4OCc4ccc(Cl)cc4F)CC3)n(C[C@@H]3CCO3)c2c1 [Compound 14] | 3.7 nM |
| O=C(O)c1ccc2nc(CN3CCC(c4ccccc4NCc4ccc(Cl)cc4F)CC3)n(C[C@@H]3CCO3)c2c1 [Compound 15] | 7.5 nM |
| CN(Cc1ccc(Cl)cc1F)c1ccccc1C1CCN(Cc2nc3ccc(C(=O)O)cc3n2C[C@@H]2CCO2)CC1 [Compound 16] | > 100 nM |
| O=C(O)c1ccc2nc(CN3CCC(c4ccccc4SCc4ccc(Cl)cc4F)CC3)n(C[C@@H]3CCO3)c2c1 [Compound 17] | 53 nM |
| O=C(O)c1ccc2nc(CN3CCN(c4ccccc4OCc4ccc(Cl)cc4F)CC3)n(C[C@@H]3CCO3)c2c1 [Compound 18] | 10.7 nM |
| O=C(O)c1ccc2nc(CC3CCN(c4ccccc4OCc4ccc(Cl)cc4F)CC3)n(C[C@@H]3CCO3)c2c1 [Compound 19] | > 100 nM |
| O=C(O)c1ccc2nc(Cc3ccc(-c4ccccc4OCc4ccc(Cl)cc4F)cc3)n(C[C@@H]3CCO3)c2c1 [Compound 20] | 24.6 nM |
| O=C(O)c1ccc2nc(CC3CCC(c4ccccc4OCc4ccc(Cl)cc4F)CC3)n(C[C@@H]3CCO3)c2c1 (stereo partly drawn) [Compound 21] | > 100 nM |
| O=C(O)c1ccc2nc(CN3CCC(c4ccccc4OCc4ccc(Cl)cc4F)CC3)n(C[C@@H]3CCO3)c2n1 [Compound 22] | 2.1 nM |
| O=C(O)c1ccc2nc(C3(N4CCC(c5ccccc5OCc5ccc(Cl)cc5F)CC4)CC3)n(C[C@@H]3CCO3)c2c1 [Compound 23] | > 100 nM |
| Cn1c(CN2CCC(c3ccccc3OCc3ccc(Cl)cc3F)CC2)nc2ccc(C(=O)O)cc21 [Compound 24] | > 100 nM |
| CCn1cncc1Cn1c(CN2CCC(c3ccccc3OCc3ccc(Cl)cc3F)CC2)nc2ccc(C(=O)O)cc21 [Compound 25] | > 100 nM |
| [2H]C([2H])(Oc1ccccc1C1CCN(Cc2nc3ccc(C(=O)O)cc3n2C[C@@H]2CCO2)CC1)c1ccc(Cl)cc1F [Compound 26] | 1.8 nM |
| [2H]C([2H])(c1nc2ccc(C(=O)O)cc2n1C[C@@H]1CCO1)N1CCC(c2ccccc2OCc2ccc(Cl)cc2F)CC1 [Compound 27] | 2.3 nM |
| CC1(c2ccccc2OCc2ccc(Cl)cc2F)CCN(Cc2nc3ccc(C(=O)O)cc3n2C[C@@H]2CCO2)CC1 [Compound 28] | > 100 nM |
| CC1CN(Cc2nc3ccc(C(=O)O)cc3n2C[C@@H]2CCO2)CCC1c1ccccc1OCc1ccc(Cl)cc1F (stereo partly drawn) [Compound 29] | > 100 nM |
| CC1CN(Cc2nc3ccc(C(=O)O)cc3n2C[C@@H]2CCO2)CC(C)C1c1ccccc1OCc1ccc(Cl)cc1F (stereo partly drawn) [Compound 30] | > 100 nM |
